Reference: paper PMC12298624, “Anti-Infective Properties, Cytotoxicity, and In Silico ADME Parameters of Novel 4′-(Piperazin-1-yl)benzanilides” (Pharmaceuticals, 2025)

How the values were obtained:
[1] = test system: M. luteus ATCC 10240; experiment: MIC/MBC microbroth dilution (EUCAST); type: cell-based, Micrococcus luteus; settings: Micrococcus luteus, ATCC10240, M. luteus ATCC 10240; for MBC: read-out: MBC; for MIC: read-out: MIC
Procedure: (§1) Minimum inhibitory concentrations (MIC values) were obtained using the microbroth dilution method as stated in the EUCAST guidelines. Tests were conducted on cation adjusted Mueller–Hinton broth (caMHB) or agar (caMHA). These were prepared and stored following the manufacturer’s guidelines. Biological organisms were prepared via growth on either Luria–Bertani (LB) or cation adjusted Mueller–Hinton agar plates. These were grown for 24 h at 37 °C, except for Micrococcus luteus where MICs took longer to grow and as a consequence were read after 48 h once a clear positive control could be observed. For the MIC experiment, the bacteria were prepared using the McFarland 0.5 standard and diluted 1 in 100 or 1 in 10 in caMHB following EUCAST and CSLI guidelines for the preparation of bacteria. Testing of the compounds using the microbroth dilution method took place in 96-well plates. Serial 2-fold dilutions of compounds in caMHB covering a range from 256 µg/mL to 0.25 µg/mL were prepared. Bacteria preparations (McFarland) were added to the compound dilutions, further halving the compound concentrations. The plate was then incubated for 18 h at 37 °C. Controls for the MIC experiments included a bacterial growth (positive) control of bacteria and caMHB only and a media only (negative) control. After incubation, the plates were read, whereby the positive control of bacteria was visible and the negative control was clear of contamination. The last clear well, where there is no growth of bacteria, was counted as the MIC value. […] The lowest concentration without any bacterial growth was counted as the MBC value. The following pathogens were used: Pseudomonas aeruginosa NCTC 13437, Escherichia coli NCTC 13353, Bacillus subtilis 168a, Serratia marcescens NCTC 9940, Micrococcus luteus ATCC 10240, Staphylococcus aureus JE2 USA 300, Acinetobacter baumannii ATCC 19606, and Klebsiella pneumoniae ATCC 700603. A concentration range of 256 µg/mL to 0.25 µg/mL of a combination of ciprofloxacin and meropenem against E. coli 25922 was used as an antibiotic control to ensure correct dilution and performance of the assay.

[2] = test system: A. baumannii ATCC 19606; experiment: MIC/MBC microbroth dilution (EUCAST); type: cell-based, Acinetobacter baumannii; settings: Acinetobacter baumannii; for MBC: ATCC19606; for MIC: ATCC19606, read-out: MIC
Procedure: as §1

[3] = test system: E. coli NCTC 13353; experiment: MIC/MBC microbroth dilution (EUCAST); type: cell-based, Escherichia coli; settings: Escherichia coli; for MBC: NCTC13353; for MIC: NCTC13353, read-out: MIC
Procedure: as §1

[4] = Resazurin-based in vitro cytotoxicity with HepG2 cells; type: cell-based, human; settings: HepG2 cells; human hepatocarcinoma cells, 48 h
Procedure: The HepG2 cells were washed with DPBS (Dulbecco’s PBS without calcium and magnesium, Gibco, Cat #21600-044) and trypsinized with trypsin solution in DPBS. Trypsinization was stopped by adding culture medium, and after being stained with Trypan Blue (SORS Ukraine) cells were counted using a counting chamber (Hausser Scientific, Cat #3500). The cell suspension was placed in a falcon tube containing plating medium DMEM/High glucose with 1% fetal bovine serum, 100 units/mL penicillin, and 100 µg/mL streptomycin. Cells at a density of 250,000 cells/mL were seeded in sterile 384-well plates (Greiner Bio-One, Cat #781091) in a volume of […] and incubated at 37 °C and 5% CO2. Serial dilutions of ten 3-fold dilution steps of test and reference compounds covering a range from 100.0 to 0.005 µM were added to the wells, followed by incubation at 37 °C and 5% CO2 for 48 h. Then, resazurin (50 µM final concentration) was added and plates were incubated for another 3 h. The plates were read with a SpectraMax microplate reader (Molecular Devices Cooperation, Sunnyvale, CA, USA)) using an extinction wavelength of 555 nm and an emission wavelength of 570 nm. IC50 values were calculated using GraphPad Prism 9.0 charting software. Doxorubicin (Sigma Aldrich D1515) was used as control.

[5] = test system: B. subtilis 168a; experiment: MIC/MBC microbroth dilution (EUCAST); type: cell-based, Bacillus subtilis; settings: Bacillus subtilis, 168A; for MIC: read-out: MIC
Procedure: as §1

[6] = Resazurin-based in vitro cytotoxicity with L-6 cells; type: cell-based, rat; settings: rat
Procedure: Serial drug dilutions of eleven 3-fold dilution steps covering a range from 100 to 0.002 µg/mL were prepared. After 70 h of incubation, the plates were inspected under an inverted microscope to assure growth of the controls and sterile conditions. […] The plates were read with a Spectramax Gemini XS microplate fluorometer (Molecular Devices Cooperation, Sunnyvale, CA, USA) using an excitation wavelength of 536 nm and an emission wavelength of 588 nm. IC50 values were calculated by linear regression from the sigmoidal dose–inhibition curves using SoftmaxPro software Version 8.2.1 (Molecular Devices Cooperation, Sunnyvale, CA, USA). Podophyllotoxin (Sigma P4405) was used as control.

[7] = test system: P. falciparum NF54; experiment: In vitro microplate assay against P. falciparum NF54 (3H-hypoxanthine incorporation); type: cell-based, Plasmodium falciparum; settings: Plasmodium falciparum, NF54, chloroquine-sensitive strain NF54, erythrocytic stages; read-out: P.f.NF54 IC50
Procedure: Serial drug dilutions of eleven 3-fold dilution steps covering a range from 100 to 0.002 µg/mL were prepared. […] After 48 h of incubation time, 0.05 mL of ^3H-hypoxanthine (=0.5 µCi) was added to each well of the plate. The plates were incubated for a further 24 h under the same conditions. Plates were then harvested using a BetaplateTM cell harvester (Wallac, Zurich, Switzerland). Red blood cells were transferred onto a glass fiber filter and then washed with distilled aqua demin. The dried filters were inserted into a plastic foil with 10 mL of scintillation fluid and counted in a BetaplateTM liquid scintillation counter (Wallac, Zurich, Switzerland). IC50 values were calculated from sigmoidal inhibition curves by linear regression using Microsoft Excel. […] Louis, MO, USA) was used as control.

[8] = test system: S. aureus JE2 USA 300; experiment: MIC/MBC microbroth dilution (EUCAST); type: cell-based; settings: Staphylococcus aureus, USA300, S. aureus JE2 USA 300
Procedure: as §1

[9] = test system: P. aeruginosa NCTC 13437; experiment: MIC/MBC microbroth dilution (EUCAST); type: cell-based; settings: Pseudomonas aeruginosa, NCTC13437
Procedure: as §1

[10] = test system: K. pneumoniae ATCC 700603; experiment: MIC/MBC microbroth dilution (EUCAST); type: cell-based; settings: Klebsiella pneumoniae, ATCC700603
Procedure: as §1

[11] = test system: S. marcescens NCTC 9940; experiment: MIC/MBC microbroth dilution (EUCAST); type: cell-based; settings: Serratia marcescens, NCTC9940
Procedure: as §1

[12] = Parallel artificial membrane permeability assay (PAMPA); settings: PAMPA, pH 7.4, Pe, PBS pH 7.4, 200 µM, 5 h, room temperature
Procedure: With the high-throughput PAMPA the newly synthesized compounds were tested for their passive permeability through cell membranes without the influence of efflux pumps or transporter proteins. The assay was performed using a Corning® Gentest^TM Precoated PAMPA Plate System (Corning, Glendale, AZ, USA) with 96-well polystyrene plates. The bottom of the acceptor plate consists of a porous membrane, whereby the pores are lined with a lipid–oil–lipid triple layer. Stock solutions of each test compound at 10 mM were prepared in DMSO or methanol and diluted with phosphate-buffered saline (PBS at a pH of 7.4) to a final concentration of 200 µM. […] The donor plate (bottom plate) was filled with the compound solutions, whereby all compounds were tested in quadruplicates. Each well of the acceptor plate (top plate) was filled with PBS buffer. Donor and acceptor plates were combined and incubated at room temperature for 5 h. After that, the plates were separated and 150 µL of each well of both plates were transferred to 96-well UV plates (Greiner Bio-One). Absorption at different wavelengths covering a range from 200 to 300 nm was measured using a SpectraMax M3 UV plate reader. […] The plates were analyzed at the wavelength where the R2 value of the calibration curve was higher than 0.99 [47].
Recovery of compounds from donor and acceptor wells (mass retention) was calculated as shown in the equation below. Data were only accepted when recovery exceeded 70%. The equation is as follows:(3) R=1−[cDt×VD+cAt×VA]/(c0×VD) where

| Structure (SMILES) | MBC [1] | MIC [1] | MBC [2] | MIC [2] | MBC [3] | MIC [3] | IC50 at 48 h [4] | MBC [5] | MIC [5] | IC50 at 70 h [6] | IC50 [7] | MBC [8] | MIC [8] | MBC [9] | MIC [9] | MBC [10] | MIC [10] | MBC [11] | MIC [11] | Papp at 5 h, 200 µM [12] |
| --- | --- | --- | --- | --- | --- | --- | --- | --- | --- | --- | --- | --- | --- | --- | --- | --- | --- | --- | --- | --- |
| O=C(c1cccc(C(F)(F)F)c1Oc1ccc(F)cc1)N1CCNCC1 [Compound 52, [2-(4-Fluorophenoxy)-3-(trifluoromethyl)phenyl](piperazin-1-yl)methanon] | 256 µg/mL | 256 µg/mL | > 256 µg/mL | 256 µg/mL | > 256 µg/mL | > 256 µg/mL | > 100 µM | > 256 µg/mL | > 256 µg/mL | 136 µM | 23.2 µM | > 256 µg/mL | > 256 µg/mL | > 256 µg/mL | > 256 µg/mL | > 256 µg/mL | > 256 µg/mL | > 256 µg/mL | > 256 µg/mL | 8.35 ×10⁻⁶ cm/s |
| O=C(Nc1ccc(N2CCNCC2)cc1)c1cccc(C(F)(F)F)c1Oc1ccccc1 [Compound 58, 2-Phenoxy-N-[4-(piperazin-1-yl)phenyl]-3-(trifluoromethyl)benzamide] | 128 µg/mL | 128 µg/mL | > 256 µg/mL | 256 µg/mL | > 256 µg/mL | > 256 µg/mL | 5.8 µM | 256 µg/mL | 128 µg/mL | 25.9 µM | 3.81 µM | 128 µg/mL | 128 µg/mL | > 256 µg/mL | > 256 µg/mL | 256 µg/mL | 256 µg/mL | > 256 µg/mL | > 256 µg/mL | 4.98 ×10⁻⁶ cm/s |
| O=C(Nc1ccc(N2CCNCC2)cc1)c1cccc([N+](=O)[O-])c1Oc1ccc(F)cc1 [Compound 61, 2-(4-Fluorophenoxy)-3-nitro-N-[4-(piperazin-1-yl)phenyl]benzamide] | 128 µg/mL | 128 µg/mL | > 256 µg/mL | 256 µg/mL | > 256 µg/mL | > 256 µg/mL | 29.8 µM | > 256 µg/mL | 256 µg/mL | 43.8 µM | 4.1 µM | > 256 µg/mL | 128 µg/mL | > 256 µg/mL | > 256 µg/mL | > 256 µg/mL | 256 µg/mL | > 256 µg/mL | > 256 µg/mL | 8.36 ×10⁻⁶ cm/s |
